Consider 42 compounds from patent US7300946B2, “N-(substituted arylmethyl)-4-(disubstituted methyl) piperidines and pyridines” (Bayer CropScience AG, priority 2002, dated 2007).

The assay has as its system tobacco budworm (Heliothis virescens [Fabricius]). The experiment in a line: surface-treated diet test against the tobacco budworm. Format: in vivo. The settings on record: tobacco budworm second instar larvae, 0.25 millimoles of candidate insecticide on the surface of the diet, five-day exposure; for Percent Mortality: compared to total number of insects infested; for Percent Growth Inhibition: inhibition of insect weight relative to untreated controls. An outline of the steps:
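Wheat germ artificial diet surface-treated with 40 µL of 50 mM DMSO stock diluted 1:7 in 1:1 water/acetone (0.25 millimolar on diet), or sub-multiples for rate tests. One second-instar larva per well, 25° C, 60% RH, 5 days; percent weight inhibition vs DMSO controls and percent mortality.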

Take `O=C(Nc1cc(F)cc(F)c1)OC(c1ccc(C(F)(F)F)cc1)C1CC[N+]([O-])(Cc2ccc(Oc3ccccc3F)cc2)CC1` (stereo not drawn) [Compound 750]: the “Percent Mortality” value is reported as 100% and the “Percent Growth Inhibition” value was 100%.

With `O=C(Nc1cc(F)cc(F)c1)OC(c1ccc(C(F)(F)F)cc1)C1CC[N+]([O-])(Cc2ccc(Oc3c(F)cccc3F)cc2)CC1` (stereo not drawn) [Compound 751], the “Percent Mortality” value stood at 100% and the “Percent Growth Inhibition” value is 100%.

For the compound `O=C(Nc1cc(F)cc(F)c1)OC(c1ccc(F)cc1)C1CC[N+]([O-])(Cc2ccc(Oc3ccccn3)cc2)CC1` (stereo not drawn) [Compound 752], the “Percent Mortality” value is listed as 100% and the “Percent Growth Inhibition” value came to 100%.

For `O=C(Nc1ccc(F)cc1F)OC(c1ccc(C(F)(F)F)cc1)C1CC[N+]([O-])(Cc2ccc(Oc3ccccn3)cc2)CC1` (stereo not drawn) [Compound 753], the “Percent Mortality” value was 100% and the “Percent Growth Inhibition” value worked out at 100%.

For the compound `O=C(Nc1ccc(F)c(F)c1)OC(c1ccc(C(F)(F)F)cc1)C1CC[N+]([O-])(Cc2ccc(Oc3ccccn3)cc2)CC1` (stereo not drawn) [Compound 754], the “Percent Mortality” value stood at 100% and the “Percent Growth Inhibition” value amounted to 100%.

`O=C(Nc1cc(F)cc(F)c1)OC(c1ccc(C(F)(F)F)cc1)C1CC[N+]([O-])(Cc2ccc(Oc3ncccc3Cl)cc2)CC1` (stereo not drawn) [Compound 755]: the “Percent Mortality” value is recorded as 100% and the “Percent Growth Inhibition” value turned out to be 100%.

For the compound `O=C(Nc1cc(F)cc(F)c1)OC(c1ccc(C(F)(F)F)cc1)C1CC[N+]([O-])(Cc2ccc(Oc3ccc(Cl)cn3)cc2)CC1` (stereo not drawn) [Compound 756], the “Percent Mortality” value was determined as 100% and the “Percent Growth Inhibition” value is 100%.

Turning to `O=C(Nc1cc(F)cc(F)c1)OC(c1ccc(C(F)(F)F)cc1)C1CC[N+]([O-])(Cc2ccc(Oc3cccc(Cl)n3)cc2)CC1` (stereo not drawn) [Compound 757], the “Percent Mortality” value came to 100% and the “Percent Growth Inhibition” value is 100%.

Take `O=C(Nc1cc(F)cc(F)c1)OC(c1ccc(C(F)(F)F)cc1)C1CC[N+]([O-])(Cc2ccc(Oc3ncc(Cl)cc3Cl)cc2)CC1` (stereo not drawn) [Compound 758]: the “Percent Mortality” value stood at 100% and the “Percent Growth Inhibition” value is reported as 100%.

In the case of `O=C(Nc1cc(F)cc(F)c1)OC(c1ccc(C(F)(F)F)cc1)C1CC[N+]([O-])(Cc2ccc(Oc3ncccc3C(F)(F)F)cc2)CC1` (stereo not drawn) [Compound 759], the “Percent Mortality” value is reported as 100% and the “Percent Growth Inhibition” value was 100%.

Turning to `O=C(Nc1cc(F)cc(F)c1)OC(c1ccc(C(F)(F)F)cc1)C1CC[N+]([O-])(Cc2ccc(Oc3cc(C(F)(F)F)ccn3)cc2)CC1` (stereo not drawn) [Compound 760], the “Percent Mortality” value was determined as 100% and the “Percent Growth Inhibition” value is 100%.

As for `COC(=O)N(c1ccc(C[N+]2([O-])CCC(C(OC(=O)Nc3cc(F)cc(F)c3)c3ccc(C(F)(F)F)cc3)CC2)cc1)c1ccccn1` (stereo not drawn) [Compound 761], the “Percent Mortality” value is reported as 100% and the “Percent Growth Inhibition” value was 100%.

`O=C(Nc1ccc(Cl)cc1)OC(c1ccc(C(F)(F)F)cc1)C1CC[N+]([O-])(Cc2ccc(Oc3ncccn3)cc2)CC1` (stereo not drawn) [Compound 762]: the “Percent Mortality” value stood at 100% and the “Percent Growth Inhibition” value is on record as 100%.

`O=C(Nc1ccc(F)cc1F)OC(c1ccc(C(F)(F)F)cc1)C1CC[N+]([O-])(Cc2ccc(Oc3ncccn3)cc2)CC1` (stereo not drawn) [Compound 763]: the “Percent Mortality” value was 100% and the “Percent Growth Inhibition” value was determined as 100%.

Turning to `O=C(Nc1ccc(F)c(F)c1)OC(c1ccc(C(F)(F)F)cc1)C1CC[N+]([O-])(Cc2ccc(Oc3ncccn3)cc2)CC1` (stereo not drawn) [Compound 764], the “Percent Mortality” value turned out to be 100% and the “Percent Growth Inhibition” value is 100%.

Consider `O=C(Nc1cc(F)cc(F)c1)OC(c1ccc(C(F)(F)F)cc1)C1CC[N+]([O-])(Cc2ccc(Oc3ncccn3)cc2)CC1` (stereo not drawn) [Compound 765], for which the “Percent Mortality” value amounted to 100% and the “Percent Growth Inhibition” value was 100%.

Turning to `O=C(Nc1ccc(Cl)cc1)OC(c1ccc(C(F)(F)F)cc1)C1CC[N+]([O-])(Cc2ccc(Oc3ccc(Cl)nn3)cc2)CC1` (stereo not drawn) [Compound 767], the “Percent Mortality” value was found to be 100% and the “Percent Growth Inhibition” value was 100%.

For `O=C(Nc1cc(F)cc(F)c1)OC(c1ccc(C(F)(F)F)cc1)C1CC[N+]([O-])(Cc2ccc(Oc3ccc(Cl)nn3)cc2)CC1` (stereo not drawn) [Compound 768], the “Percent Mortality” value amounted to 100% and the “Percent Growth Inhibition” value came out at 100%.

As for `C=CCOC(c1ccc(C(F)(F)F)cc1)C1CCN(Cc2ccc(Oc3ccccn3)cc2)CC1` (stereo not drawn) [Compound 769], the “Percent Mortality” value worked out at 0% and the “Percent Growth Inhibition” value was determined as 13%.

For the compound `CC(C)OC(=O)OC(c1ccc(C(F)(F)F)cc1)C1CCN(Cc2ccc(Oc3ccccn3)cc2)CC1` (stereo not drawn) [Compound 770], the “Percent Mortality” value came out at 0% and the “Percent Growth Inhibition” value is given as 76%.

Consider `CNC(=O)OC(c1ccc(C(F)(F)F)cc1)C1CCN(Cc2ccc(Oc3ccccn3)cc2)CC1` (stereo not drawn) [Compound 771], for which the “Percent Mortality” value came out at 17% and the “Percent Growth Inhibition” value was found to be 72%.

Regarding `CNC(=S)OC(c1ccc(C(F)(F)F)cc1)C1CCN(Cc2ccc(Oc3ccccn3)cc2)CC1` (stereo not drawn) [Compound 772], the “Percent Mortality” value is on record as 0% and the “Percent Growth Inhibition” value is 78%.

Regarding `CCON=Cc1ccc(CN2CCC(C(OC(=O)N(C)C)c3ccc(C(F)(F)F)cc3)CC2)cc1` (stereo not drawn) [Compound 773], the “Percent Mortality” value is recorded as 100% and the “Percent Growth Inhibition” value stood at 100%.

As for `CCNC(=O)OC(c1ccc(C(F)(F)F)cc1)C1CCN(Cc2ccc(Oc3ccccn3)cc2)CC1` (stereo not drawn) [Compound 774], the “Percent Mortality” value is 0% and the “Percent Growth Inhibition” value is 98%.

Regarding `CCCNC(=O)OC(c1ccc(C(F)(F)F)cc1)C1CCN(Cc2ccc(Oc3ccccn3)cc2)CC1` (stereo not drawn) [Compound 775], the “Percent Mortality” value was determined as 33% and the “Percent Growth Inhibition” value came to 100%.

As to `CC(C)NC(=O)OC(c1ccc(C(F)(F)F)cc1)C1CCN(Cc2ccc(Oc3ccccn3)cc2)CC1` (stereo not drawn) [Compound 776], the “Percent Mortality” value is listed as 100% and the “Percent Growth Inhibition” value was 100%.

`CC(C)NC(=S)OC(c1ccc(C(F)(F)F)cc1)C1CCN(Cc2ccc(Oc3ccccn3)cc2)CC1` (stereo not drawn) [Compound 777]: the “Percent Mortality” value is reported as 67% and the “Percent Growth Inhibition” value was determined as 100%.

Take `CC(C)N(C)C(=O)OC(c1ccc(C(F)(F)F)cc1)C1CCN(Cc2ccc(Oc3ccccn3)cc2)CC1` (stereo not drawn) [Compound 778]: the “Percent Mortality” value is 0% and the “Percent Growth Inhibition” value stood at 100%.

As to `CC(C)(C)NC(=O)OC(c1ccc(C(F)(F)F)cc1)C1CCN(Cc2ccc(Oc3ccccn3)cc2)CC1` (stereo not drawn) [Compound 779], the “Percent Mortality” value was found to be 100% and the “Percent Growth Inhibition” value is 100%.

For the compound `C=CCNC(=O)OC(c1ccc(C(F)(F)F)cc1)C1CCN(Cc2ccc(Oc3ccccn3)cc2)CC1` (stereo not drawn) [Compound 780], the “Percent Mortality” value is 0% and the “Percent Growth Inhibition” value is 98%.

With `O=C(NC1CCCC1)OC(c1ccc(C(F)(F)F)cc1)C1CCN(Cc2ccc(Oc3ccccn3)cc2)CC1` (stereo not drawn) [Compound 781], the “Percent Mortality” value is recorded as 100% and the “Percent Growth Inhibition” value worked out at 100%.

As for `O=C(NC1CCCCC1)OC(c1ccc(C(F)(F)F)cc1)C1CCN(Cc2ccc(Oc3ccccn3)cc2)CC1` (stereo not drawn) [Compound 782], the “Percent Mortality” value is reported as 100% and the “Percent Growth Inhibition” value turned out to be 100%.

As for `CCOC(=O)CNC(=O)OC(c1ccc(C(F)(F)F)cc1)C1CCN(Cc2ccc(Oc3ccccn3)cc2)CC1` (stereo not drawn) [Compound 783], the “Percent Mortality” value turned out to be 0% and the “Percent Growth Inhibition” value stood at 70%.

In the case of `COC(=O)C(NC(=O)OC(c1ccc(C(F)(F)F)cc1)C1CCN(Cc2ccc(Oc3ccccn3)cc2)CC1)C(C)C` (stereo not drawn) [Compound 784], the “Percent Mortality” value was 100% and the “Percent Growth Inhibition” value was determined as 100%.

For the compound `CC(C)NC(=O)OC(c1ccc(C(F)(F)F)cc1)C1CC[N+]([O-])(Cc2ccc(Oc3ccccn3)cc2)CC1` (stereo not drawn) [Compound 785], the “Percent Mortality” value stood at 100% and the “Percent Growth Inhibition” value was determined as 100%.

In the case of `O=C(Nc1cc(F)cc(F)c1)OC(C1=CCN(Cc2ccc(Oc3ncccn3)cc2)CC1)c1ccc(C(F)(F)F)cc1` (stereo not drawn) [Compound 786, N-(3,5-difluorophenyl)({1-[(4-pyrimidin-2-yloxyphenyl)methyl](4-1,2,5,6-tetrahydropyridyl)}[4-(trifluoromethyl)phenyl]methoxy)carboxamide], the “Percent Mortality” value came out at 100% and the “Percent Growth Inhibition” value turned out to be 100%.

Consider `O=C(Nc1cc(F)cc(F)c1)OC(C1=CC[N+]([O-])(Cc2ccc(Oc3ncccn3)cc2)CC1)c1ccc(C(F)(F)F)cc1` (stereo not drawn) [Compound 787], for which the “Percent Mortality” value turned out to be 100% and the “Percent Growth Inhibition” value came out at 100%.

`CC(=O)Oc1ccc(CN2CCC(=C(c3ccc(C(F)(F)F)cc3)c3ccc(C(F)(F)F)cc3)CC2)cc1` [Compound 788]: the “Percent Mortality” value worked out at 33% and the “Percent Growth Inhibition” value is listed as 87%.

Consider `CNC(=O)Oc1ccc(CN2CCC(=C(c3ccc(Cl)cc3)c3ccc(Cl)cc3)CC2)cc1` [Compound 789], for which the “Percent Mortality” value was 100% and the “Percent Growth Inhibition” value is on record as 100%.

Take `CNC(=O)Oc1ccc(CN2CCC(=C(c3ccc(C(F)(F)F)cc3)c3ccc(C(F)(F)F)cc3)CC2)cc1` [Compound 790]: the “Percent Mortality” value is 100% and the “Percent Growth Inhibition” value was found to be 100%.

Regarding `CNC(=O)Oc1ccc(CN2CCC(=C(c3ccc(OC(F)(F)F)cc3)c3ccc(OC(F)(F)F)cc3)CC2)cc1` [Compound 791], the “Percent Mortality” value worked out at 100% and the “Percent Growth Inhibition” value is given as 100%.

Consider `CC(C)NC(=O)Oc1ccc(CN2CCC(=C(c3ccc(C(F)(F)F)cc3)c3ccc(C(F)(F)F)cc3)CC2)cc1` [Compound 792], for which the “Percent Mortality” value was 100% and the “Percent Growth Inhibition” value is given as 100%.
